The results in this text go back to patent publication US20030203963A1, “Antimicrobial agent” (priority 2001, published 2003).

The subject of one assay is L. monocytogenes 358. The experiment in a line: Bioscreen growth inhibition test. In kind it is cell-based, Listeria monocytogenes. The note with it: BS010510, 24 h at 30° C., APP20010213. On the procedure: (§1) For broth cultures and Bioscreen testing most bacteria were grown in Brain Heart Infusion (BHI, Oxoid, pH 7.4). Lactobacillus sake A10 was grown in de Man, Rogosa, Sharpe medium ([…], Oxoid). Yeasts were grown in Sabouraud Liquid medium (SLM, Oxoid). Most bacteria were cultured at 30° C. Lactic acid bacteria were grown on solid medium in enriched CO2 atmosphere. Clostridium species were grown in Reinforced Clostridial Medium (RCM) at 37° C. anaerobically. Brochothrix thermosphacta fungi and yeasts were grown at 25° C. Fungi were cultured on Malt Extract Agar (MEA, Oxoid).
(§2) An automated Microbiology Reader Bioscreen C was used to measure growth curves of the strains in the presence and absence of APP. The Bioscreen C measures the development of turbidity (i.e. growth) kinetically by vertical photometry in 200 wells of a honeycomb microtitre plate, simultaneously. The system consists of a Bioscreen C analyser, which is an incubator and measurement unit, integrated with a PC, software (BioLink v 5.30), printer and a ‘Honeycomb 2’ cuvette multiwell plate. Growth curve data can be analysed within the BioLink software or exported to programs such as Excel.
(§3) Broth culture media were dispensed in 270 μl volumes into the wells as directed. Serial dilutions of a filter-sterilised APP stock solution were then dispensed into the same wells, as appropriate. The wells were inoculated with 30 μl of an appropriately diluted overnight broth culture or spore suspension, to give a final inoculum level of […]. The tests were incubated in the Bioscreen C for either 24 h at 30° C., or 72 h at 25° C. (depending on the micro-organism under investigation) with readings taken every 20 minutes after the trays were shaken. After the incubation period was complete the data were exported to Excel for analysis.

The next assay relates to L. monocytogenes 272. The experiment in a line: Bioscreen growth inhibition test. Format: cell-based, Listeria monocytogenes. The note with it: BS010411, 24 h at 30° C. Here is the method:
as §1, §2, §3

Another assay concerns L. monocytogenes S23. Put plainly: Bioscreen growth inhibition test. Format: cell-based, Listeria monocytogenes. Particulars: BS010411, 24 h at 30° C. Here is the method: as §1, §2, §3
In another assay the test system is L. monocyt. F6861. Put plainly: Bioscreen growth inhibition test. The note with it: BS010510, 24 h at 30° C., APP20010213. Format: cell-based, Listeria monocytogenes. On the procedure: as §1, §2, §3
The next assay concerns L. monocyt. Scott A. The experiment in a line: Bioscreen growth inhibition test. Format: cell-based, Listeria monocytogenes. Particulars: BS010510, 24 h at 30° C., APP20010213. Here is the method: as §1, §2, §3
Another assay relates to B. cereus 204. Put plainly: Test in cooked sausage meat slurry. In kind it is cell-based, Bacillus cereus. The text has this:
500 g of bologna sausage meat mixture was mixed with 500 g Brain Heart Infusion broth (BHIB) to make a homogeneous slurry. The bologna sausage meat mix comprised (g per kg): lean beef 320; lean pork 202; lard 250; water 40; glucose 5; starch 155; spice mix 3.75; sodium glutamate 0.5; sodium erythorbate 0.545; sodium di-phosphate 3; NaCl 20; sodium nitrite 0.15. 200 g samples of the meat slurry were autoclaved. While the meat was still warm it was re-mixed thoroughly. When the meat had cooled it was inoculated with 2 ml of 10^5 cfu/ml spore or cell suspension, and re-mixed again. Each inoculated meat sample was divided into 3×50 g samples, and 1 ml of either SDW, 2.5% or 5% APP solution (batch number APP 20010215) was added to prepare meat samples containing 0, 500 and 1000 ppm APP. The meat slurry was again shaken thoroughly to ensure even mixing, an initial viable count was taken and the samples incubated at 8° C. Samples were taken at twice-weekly intervals. The pH of the sausage meat slurry was 6.2.

On to `O=C1CC(CO)OC=C1O` (stereo not shown) [APP, Ascopyrone P], for which the “APP level causing total inhibition” value with L. monocytogenes 358 is recorded as 3000 ppm; in the assay with L. monocytogenes 272 (APP20010213), 4000 ppm; in the assay with L. monocytogenes 272 (APP20010215), above 4000 ppm; in the assay on L. monocytogenes S23 (APP20010213), 4000 ppm; in the assay with L. monocytogenes S23 (APP20010215), 4000 ppm; in the assay on L. monocyt. F6861, 3000 ppm. In the assay with L. monocyt. Scott A, the “APP level causing total inhibition” value stood at 3000 ppm. Besides, the “APP level causing significant inhibition” value in the assay on L. monocytogenes 272 (APP20010213) turned out to be 2000 ppm; in the assay on L. monocytogenes 272 (APP20010215) it was 2000 ppm; in the assay on L. monocytogenes S23 (APP20010213), 2000 ppm; in the assay on L. monocytogenes S23 (APP20010215) it was 1000 ppm; in the assay on L. monocyt. F6861, 2000 ppm; in the assay on L. monocyt. Scott A, 2000 ppm. Also, in the assay on B. cereus 204 (1000 ppm, cooked sausage meat slurry at 8° C., TSM010605, controls 5 d), the “10^6 reached at” value was 7 d. In addition, the Effect on growth result in the assay with B. cereus 204 (1000 ppm, cooked sausage meat slurry at 8° C., pH 6.2, TSM010605) was “No total inhibition”. Besides, the “Partial inhibition (effect on growth of target organism by APP)” value with B. cereus 204 (Cooked sausage meat slurry at 8° C. pH 6.2, (1000)) is “B. cereus (1000)”.
